From US20210115104A1, “AMYLIN ANALOGUES” (Zealand Pharma A/S, priority 2015, published 2021)
*1 amine or outer side, *2 acyl side, *3 side chain or, on linkers, in order; H or OH if unused. Where a SMILES comes first, the peptide text is derived from it. Bridges are numbered along the chain shown (N, C = ends). [ ]: non-standard residue; d: D form. The star is where a group is joined. C20 diacid = O=C(O)CCCCCCCCCCCCCCCCCCC(=O)*; γGlu = O=C(O)[C@H](CCC(=O)[*:2])N[*:1]; Hyp = O=C(O)[C@@H]1C[C@@H](O)CN1; NMeI = CC[C@H](C)[C@H](NC)C(=O)O; Aad = N[C@@H](CCCC(=O)O)C(=O)O; Sar = CNCC(=O)O

Legend:
[1] = Assessment of chemical stability (RP-HPLC normalized purity); format: physicochemical; conditions: 7 days, 40° C., Table 1; for Normalized purity after 7 days, 40° C., pH 4: pH 4, 0.2 mg/ml; for Normalized purity after 7 days, 40° C., pH 7.5: pH 7.5, 0.2 mg/ml; for Normalized purity after 7 days, 40° C., pH 9: pH 9, 0.2 mg/ml; for Normalized purity after 7 days, 40° C., pH 6: pH 6, 0.2 mg/ml
In short: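 Purity after 7 days at 40° C is expressed relative to T=0 (set to 100) for each pH. Samples at 0.2 mg/ml, pH 4, 6, 7.5 or 9, analyzed by RP-HPLC with UV 220 nm on C8 (ammonium formate) or C18 (TFA) gradients.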

[2] = target: T1, human calcitonin receptor (hCTR2) (Homo sapiens, UniProt P30988); experiment: hCTR2 cAMP assay (AlphaScreen) in COS7 cells; format: cell-based; conditions: cAMP induction, COS7 cells expressing hCTR2; Table 1; read-out: hCTR2 EC50
T1 construct: expressed in transfected cells
T1 sequence (P30988 25-474): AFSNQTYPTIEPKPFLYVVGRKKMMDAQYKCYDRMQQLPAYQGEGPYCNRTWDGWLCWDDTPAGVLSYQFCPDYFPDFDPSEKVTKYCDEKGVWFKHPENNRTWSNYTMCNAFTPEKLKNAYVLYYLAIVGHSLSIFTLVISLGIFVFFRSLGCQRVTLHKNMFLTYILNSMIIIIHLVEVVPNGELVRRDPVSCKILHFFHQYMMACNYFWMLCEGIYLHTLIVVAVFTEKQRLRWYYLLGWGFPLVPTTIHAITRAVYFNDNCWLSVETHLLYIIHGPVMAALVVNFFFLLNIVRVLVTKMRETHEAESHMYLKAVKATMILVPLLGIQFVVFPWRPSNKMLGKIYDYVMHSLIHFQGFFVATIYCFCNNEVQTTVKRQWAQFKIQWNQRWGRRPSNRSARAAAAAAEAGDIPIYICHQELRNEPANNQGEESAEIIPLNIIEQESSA
In short: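 cAMP induction, read by AlphaScreen after lysis, gives EC50 values via 4PL curve fitting. Peptides were applied at rising concentrations for 15 min at 37 °C, with IBMX and 0.1% casein in HEPES-buffered Tyrode pH 7.4, to COS7 cells (no endogenous RAMPs) stably expressing human CTR2.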

[3] = target: T2, human amylin receptor 3 (hAMYR3), hCTR2 co-expressed with hRAMP3 (Homo sapiens, UniProt O60896+P30988); experiment: hAMYR3 cAMP assay (AlphaScreen) in COS7 cells; format: cell-based; conditions: cAMP induction, COS7 cells expressing hAMYR3; Table 1; read-out: hAMYR3 EC50
T2 construct: expressed in transfected cells
T2 sequence (P30988 25-474): T1 sequence (P30988 25-474)
T2 sequence (O60896 24-148 partner): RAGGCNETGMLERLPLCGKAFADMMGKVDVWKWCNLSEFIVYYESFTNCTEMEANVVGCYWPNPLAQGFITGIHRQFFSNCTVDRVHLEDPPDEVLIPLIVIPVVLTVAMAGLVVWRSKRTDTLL
In short: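 EC50 values derive from 4PL curve fits of cAMP (AlphaScreen) in lysates of RAMP-naive COS7 cells stably carrying hCTR2 plus hRAMP3. Peptide dilution series were applied for 15 min at 37 °C in pH 7.4 Tyrode buffer containing 100 µM IBMX and 0.1% casein.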

Row | Normalized purity after 7 days, 40° C., pH 4 [1] | Normalized purity after 7 days, 40° C., pH 7.5 [1] | Normalized purity after 7 days, 40° C., pH 9 [1] | EC50 [2] [nM] | EC50 [3] [nM] | Normalized purity after 7 days, 40° C., pH 6 [1] | SMILES
1 | A (A = >90%) | B (B = 70-90%) | B (B = 70-90%) | 0.09 | 0.12 |  | CC[C@H](C)[C@@H](C(=O)N[C@@H](CC(C)C)C(=O)N[C@@H](CO)C(=O)N[C@@H](CO)C(=O)N[C@H](C(=O)N[C@@H](CCC(=O)O)C(=O)N[C@H](C(=O)NCC(=O)N[C@@H](CO)C(=O)N[C@@H](CO)C(=O)N[C@H](C(=O)N1C[C@H](O)C[C@H]1C(N)=O)[C@@H](C)O)C(C)C)[C@@H](C)O)N(C)C(=O)[C@H](C)NC(=O)CN(C)C(=O)[C@H](Cc1ccccc1)NC(=O)[C@H](CO)NC(=O)[C@H](CO)NC(=O)[C@H](CCCNC(=N)N)NC(=O)[C@H](CC(N)=O)NC(=O)[C@H](CC(C)C)NC(=O)[C@H](Cc1ccccc1)NC(=O)[C@H](Cc1c[nH]cn1)NC(=O)[C@H](C)NC(=O)[C@H](CC(C)C)NC(=O)[C@H](CCCNC(=N)N)NC(=O)[C@H](CCC(=O)O)NC(=O)[C@@H](NC(=O)[C@H](C)NC(=O)[C@@H]1CSSC[C@H](NC(=O)[C@H](CCCNC(=N)N)NC(=O)CC[C@H](NC(=O)CCCCCCCCCCCCCCCCCCC(=O)O)C(=O)O)C(=O)NCC(=O)N[C@@H]([C@@H](C)O)C(=O)N[C@@H](C)C(=O)N[C@@H]([C@@H](C)O)C(=O)N1)[C@@H](C)O [Compound 29, [19CD]-isoGlu-R-C( )-GTAT-C( )-ATERLAHFLNRSSF-Gly(Me)-A-Ile(Me)-LSSTEVGSST-Hyp-NH2] ({C20 diacid-γGlu}-RCGTATCATERLAHFLNRSSF[Sar]A[NMeI]LSSTEVGSST[Hyp]-NH2; disulfide 2-7)
2 | B (B = 70-90%) | A (A = >90%) | A (A = >90%) | 0.15 | 0.34 | A (A = >90%) | CC[C@H](C)[C@@H](C(=O)N[C@@H](CC(C)C)C(=O)N[C@@H](CO)C(=O)N[C@@H](CO)C(=O)N[C@H](C(=O)N[C@@H](CCC(=O)O)C(=O)N[C@H](C(=O)NCC(=O)N[C@@H](CO)C(=O)N[C@@H](CO)C(=O)N[C@H](C(=O)N1C[C@H](O)C[C@H]1C(N)=O)[C@@H](C)O)C(C)C)[C@@H](C)O)N(C)C(=O)[C@H](C)NC(=O)CN(C)C(=O)[C@H](Cc1ccccc1)NC(=O)[C@H](CO)NC(=O)[C@H](CO)NC(=O)[C@H](CCCNC(=N)N)NC(=O)[C@@H](NC(=O)[C@H](CC(C)C)NC(=O)[C@H](Cc1ccccc1)NC(=O)[C@H](CC(=O)O)NC(=O)[C@H](C)NC(=O)[C@H](CC(C)C)NC(=O)[C@H](CCCNC(=N)N)NC(=O)[C@H](CCC(=O)O)NC(=O)[C@@H](NC(=O)[C@H](C)NC(=O)[C@@H]1CSSC[C@H](NC(=O)[C@H](CCCNC(=N)N)NC(=O)CC[C@H](NC(=O)CCCCCCCCCCCCCCCCCCC(=O)O)C(=O)O)C(=O)NCC(=O)N[C@@H]([C@@H](C)O)C(=O)N[C@@H](C)C(=O)N[C@@H]([C@@H](C)O)C(=O)N1)[C@@H](C)O)[C@@H](C)O [Compound 41, [19CD]-isoGlu-R-C( )-GTAT-C( )-ATERLADFLTRSSF-Gly(Me)-A-Ile(Me)-LSSTEVGSST-Hyp-NH2] ({C20 diacid-γGlu}-RCGTATCATERLADFLTRSSF[Sar]A[NMeI]LSSTEVGSST[Hyp]-NH2; disulfide 2-7)
3 | A (A = >90%) | A (A = >90%) | A (A = >90%) | 0.22 | 0.35 | A (A = >90%) | CC[C@H](C)[C@@H](C(=O)N[C@@H](CC(C)C)C(=O)N[C@@H](CO)C(=O)N[C@@H](CO)C(=O)N[C@H](C(=O)N[C@@H](CCC(=O)O)C(=O)N[C@H](C(=O)NCC(=O)N[C@@H](CO)C(=O)N[C@@H](CO)C(=O)N[C@H](C(=O)N1C[C@H](O)C[C@H]1C(N)=O)[C@@H](C)O)C(C)C)[C@@H](C)O)N(C)C(=O)[C@H](C)NC(=O)CN(C)C(=O)[C@H](Cc1ccccc1)NC(=O)[C@H](CO)NC(=O)[C@H](CO)NC(=O)[C@H](CCCNC(=N)N)NC(=O)[C@@H](NC(=O)[C@H](CC(C)C)NC(=O)[C@H](Cc1ccccc1)NC(=O)[C@H](CCCC(=O)O)NC(=O)[C@H](C)NC(=O)[C@H](CC(C)C)NC(=O)[C@H](CCCNC(=N)N)NC(=O)[C@H](CCC(=O)O)NC(=O)[C@@H](NC(=O)[C@H](C)NC(=O)[C@@H]1CSSC[C@H](NC(=O)[C@H](CCCNC(=N)N)NC(=O)CC[C@H](NC(=O)CCCCCCCCCCCCCCCCCCC(=O)O)C(=O)O)C(=O)NCC(=O)N[C@@H]([C@@H](C)O)C(=O)N[C@@H](C)C(=O)N[C@@H]([C@@H](C)O)C(=O)N1)[C@@H](C)O)[C@@H](C)O [Compound 43, [19CD]-isoGlu-R-C( )-GTAT-C( )-ATERLA-Aad-FLTRSSF-Gly(Me)-A-Ile(Me)-LSSTEVGSST-Hyp-NH2] ({C20 diacid-γGlu}-RCGTATCATERLA[Aad]FLTRSSF[Sar]A[NMeI]LSSTEVGSST[Hyp]-NH2; disulfide 2-7)
4 |  |  |  | 0.2 | 0.13 |  | CC[C@H](C)[C@@H](C(=O)N[C@@H](CC(C)C)C(=O)N[C@@H](CO)C(=O)N[C@@H](CO)C(=O)N[C@H](C(=O)N[C@@H](CCC(=O)O)C(=O)N[C@H](C(=O)NCC(=O)N[C@@H](CO)C(=O)N[C@@H](CO)C(=O)N[C@H](C(=O)N1C[C@H](O)C[C@H]1C(N)=O)[C@@H](C)O)C(C)C)[C@@H](C)O)N(C)C(=O)[C@H](C)NC(=O)CN(C)C(=O)[C@H](Cc1ccccc1)NC(=O)[C@H](CO)NC(=O)[C@H](CO)NC(=O)[C@H](CCCNC(=N)N)NC(=O)[C@H](CCC(N)=O)NC(=O)[C@H](CC(C)C)NC(=O)[C@H](Cc1ccccc1)NC(=O)[C@H](CCCC(=O)O)NC(=O)[C@H](C)NC(=O)[C@H](CC(C)C)NC(=O)[C@H](CCCNC(=N)N)NC(=O)[C@H](CCC(N)=O)NC(=O)[C@@H](NC(=O)[C@H](C)NC(=O)[C@@H]1CSSC[C@H](NC(=O)[C@H](CCCNC(=N)N)NC(=O)CC[C@H](NC(=O)CCCCCCCCCCCCCCCCCCC(=O)O)C(=O)O)C(=O)N[C@@H](CC(N)=O)C(=O)N[C@@H]([C@@H](C)O)C(=O)N[C@@H](C)C(=O)N[C@@H]([C@@H](C)O)C(=O)N1)[C@@H](C)O [Compound 87, [19CD]-isoGlu-R-C( )-NTAT-C( )-ATQRLA-Aad-FLQRSSF-Gly(Me)-A-Ile(Me)-LSSTEVGSST-Hyp-NH2] ({C20 diacid-γGlu}-RCNTATCATQRLA[Aad]FLQRSSF[Sar]A[NMeI]LSSTEVGSST[Hyp]-NH2; disulfide 2-7)
